From patent US7820630B2, “Substituted indole-O-glucosides” (Janssen Pharmaceutica NV, priority 2003, dated 2010)

Columns and labels:
human SGLT2 = target: T1, human SGLT2 (Homo sapiens, UniProt P31639); test: Cell-based assay for sodium-dependent glucose transport (14C-AMG uptake), CHOK-SGLT2; settings: CHO-K1 cells stably expressing human SGLT2; for IC50: Na-dependent 14C-AMG uptake
T1 construct: expressed in transfected cells
T1 sequence (P31639 1-672): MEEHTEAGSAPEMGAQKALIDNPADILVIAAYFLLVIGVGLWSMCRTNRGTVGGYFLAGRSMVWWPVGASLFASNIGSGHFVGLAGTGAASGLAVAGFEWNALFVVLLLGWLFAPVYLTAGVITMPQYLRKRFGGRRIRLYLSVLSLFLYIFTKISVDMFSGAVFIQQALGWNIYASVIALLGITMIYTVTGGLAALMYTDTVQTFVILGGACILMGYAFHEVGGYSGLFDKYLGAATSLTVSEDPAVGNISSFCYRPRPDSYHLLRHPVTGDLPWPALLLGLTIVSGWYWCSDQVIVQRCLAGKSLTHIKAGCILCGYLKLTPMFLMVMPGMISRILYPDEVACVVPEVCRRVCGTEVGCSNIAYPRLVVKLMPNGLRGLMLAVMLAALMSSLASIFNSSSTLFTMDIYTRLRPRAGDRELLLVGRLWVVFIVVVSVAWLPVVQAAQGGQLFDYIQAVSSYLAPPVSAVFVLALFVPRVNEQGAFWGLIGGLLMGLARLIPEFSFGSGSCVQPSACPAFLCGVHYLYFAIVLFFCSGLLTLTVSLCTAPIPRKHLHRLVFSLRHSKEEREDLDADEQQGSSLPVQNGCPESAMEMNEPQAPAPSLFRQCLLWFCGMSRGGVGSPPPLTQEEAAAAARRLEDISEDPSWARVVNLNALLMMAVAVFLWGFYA
Description: (§1) Cloning of the human SGLT1 and human SGLT2 cDNAs and construction of the mammalian expression vector: The human SGLT1 cDNA (Genbank M24847) was cloned from human small intestine. Human SGLT2 cDNA (Genbank M95549) was cloned from human kidney. Both full cDNAs were subcloned into pcDNA and sequenced to verify the integrity of the construct.
(§2) Generation of CHO-K1 cells stably expressing human SGLT1 or human SGLT2: Transfection of CHO-K1 cells was performed using DMRIE-C reagent (Life Technologies, Gaithersburg, Md.). Transfectants were then selected in the presence of the antibiotic G418 (Gibco-BRL, Grand Island, N.Y.) at 400 μg/ml. Individual clones were then characterized using the functional assay described below.
(§3) Cell-based assay for sodium-dependent glucose transport: Cell lines stably expressing human SGLT1 or SGLT2 were then used for functional analysis of Na+-dependent glucose uptake. Briefly, cells were plated at a density of 65,000 cells per well in a 96-well plate and allowed to grow for 48 hours. Cells were subsequently washed one time with Assay Buffer (50 mM HEPES pH […], 5 mM KCl, 1 mM MgCl2, 1 mM CaCl2 and 137 mM NaCl) and treated with compound in the absence or presence of NaCl for 15 minutes. Cells were then labeled with ^14C-α-methylglucopyranoside (AMG, Sigma, St. Louis, Mo.), a non-metabolizable glucose analog specific for sodium-dependent glucose transporters as previously described (Peng, H. and Lever J. E. Post-transcriptional regulation of Na^+/glucose cotransporter (SGLT1) gene expression in LLC-PK1 cells. J Biol Chem 1995; 270:20536-20542.). After 2 hours the labeled cells were washed three times with ice-cold PBS. After aspiration, cells were solubilized using Microscint 20 (Packard, Meriden, Conn.) and Na-dependent ^14C-AMG uptake was quantified by measuring radioactivity. Plates were counted in a TopCount (Packard, Meriden, Conn.). Results are reported as the % inhibition or IC50 value from a representative experiment. Variability for the functional assay was typically within 20%.

human SGLT1 = target: T2, human SGLT1 (Homo sapiens, UniProt P13866); test: Cell-based assay for sodium-dependent glucose transport (14C-AMG uptake), CHOK-SGLT1; settings: CHO-K1 cells stably expressing human SGLT1; for IC50: Na-dependent 14C-AMG uptake; for inhibition at 10 µM: 10 μM compound, read-out: CHOK-SGLT1 % Inh. @ 10 μM
T2 construct: expressed in transfected cells
T2 sequence (P13866 1-664): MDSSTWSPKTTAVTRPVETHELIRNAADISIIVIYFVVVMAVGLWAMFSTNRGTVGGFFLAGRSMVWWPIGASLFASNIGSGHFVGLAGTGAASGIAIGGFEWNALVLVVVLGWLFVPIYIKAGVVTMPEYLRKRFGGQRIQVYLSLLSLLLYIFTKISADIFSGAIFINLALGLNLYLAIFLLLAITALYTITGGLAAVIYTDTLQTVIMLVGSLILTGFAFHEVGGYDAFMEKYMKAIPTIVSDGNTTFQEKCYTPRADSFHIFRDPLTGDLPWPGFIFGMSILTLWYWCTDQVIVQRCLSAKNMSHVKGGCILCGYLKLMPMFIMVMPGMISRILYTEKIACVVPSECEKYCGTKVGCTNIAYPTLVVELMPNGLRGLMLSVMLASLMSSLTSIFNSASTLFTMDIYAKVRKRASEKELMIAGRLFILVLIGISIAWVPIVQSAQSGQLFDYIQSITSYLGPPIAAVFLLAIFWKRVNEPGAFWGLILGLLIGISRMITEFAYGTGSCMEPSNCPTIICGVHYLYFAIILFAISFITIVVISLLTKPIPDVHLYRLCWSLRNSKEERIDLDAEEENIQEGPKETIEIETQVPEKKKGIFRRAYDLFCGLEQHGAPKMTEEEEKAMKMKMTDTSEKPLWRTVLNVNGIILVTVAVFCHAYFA
Description: as §1, §2, §3

Structure (SMILES)	IC50 (human SGLT2)	IC50 (human SGLT1)	other results
OC[C@H]1O[C@@H](Oc2cccc3[nH]cc(CCc4ccc5ccccc5c4)c23)[C@H](O)[C@@H](O)[C@@H]1O [Example 6, 2-[3-(2-Naphthalen-2-yl-ethyl)-1H-indol-4-yloxy]-β-D-glucopyranoside]	149 nM		
OC[C@H]1O[C@@H](Oc2cccc3[nH]cc(CCc4ccc5c(c4)OCO5)c23)[C@H](O)[C@@H](O)[C@@H]1O [Example 4, 2-[3-(2-Benzo[1,3]dioxol-5-yl-ethyl)-1H-indol-4-yloxy] β-D-glucopyranoside]	98 nM	823 nM	
OC[C@H]1O[C@@H](Oc2cccc3[nH]cc(CCc4ccc5c(c4)OCCO5)c23)[C@H](O)[C@@H](O)[C@@H]1O [Example 5, 2-{3-[2-(2,3-Dihydro-benzo[1,4]dioxin-6-yl)-ethyl]-1H-indol-4-yloxy}-β-D-glucopyranoside]	146 nM	3380 nM	
CCOc1ccc(Cc2c[nH]c3cccc(O[C@@H]4O[C@H](CO)[C@@H](O)[C@H](O)[C@H]4O)c23)cc1 [Example 25, 2-[3-(4-Ethoxy-benzyl)-1H-indol-4-yloxy]-β-D-glucopyranoside]	100 nM		inhibition at 10 µM (human SGLT1): 49%
CCc1ccc(Cc2c[nH]c3cccc(O[C@@H]4O[C@H](CO)[C@@H](O)[C@H](O)[C@H]4O)c23)cc1 [Example 11, 2-[3-(4-Ethyl-benzyl)-1H-indol-4-yloxy]-β-D-glucopyranoside]	24 nM	1810 nM	
CC(C)c1ccc(Cc2c[nH]c3cccc(O[C@@H]4O[C@H](CO)[C@@H](O)[C@H](O)[C@H]4O)c23)cc1 [Example 18, 2-[3-(4-isopropyl-benzyl)-1H-indol-4-yloxy]-β-D-glucopyranoside]	88 nM		inhibition at 10 µM (human SGLT1): 49%
CCCCCC(=O)OC[C@H]1O[C@@H](Oc2cccc3[nH]cc(Cc4ccc(CC)cc4)c23)[C@H](O)[C@@H](O)[C@@H]1O [Example 14, 2-[3-(4-Ethyl-benzyl)-1H-indol-4-yloxy]-6-O-hexanoyl-β-D-glucopyranoside]	206 nM		inhibition at 10 µM (human SGLT1): 71%
OC[C@H]1O[C@@H](Oc2cccc3[nH]cc(Cc4ccc(-c5ccsc5)cc4)c23)[C@H](O)[C@@H](O)[C@@H]1O [Example 37, 2-[3-(4-Thiophen-3-yl-benzyl)-1H-indol-4-yloxy]-β-D-glucopyranoside]	34 nM	1890 nM	
COc1ccc(Cc2cn(C)c3cccc(O[C@@H]4O[C@H](CO)[C@@H](O)[C@H](O)[C@H]4O)c23)cc1 [Example 23, 2-[3-(4-Methoxy-benzyl)-1-methyl-1H-indol-4-yloxy]-β-D-glucopyranoside]	1220 nM		inhibition at 10 µM (human SGLT1): 69%
CCN(CC)C(=O)n1cc(Cc2ccc(OC)cc2)c2c(O[C@@H]3O[C@H](CO)[C@@H](O)[C@H](O)[C@H]3O)cccc21 [Example 21, 2-[1-Diethylcarbamoyl-3-(4-methoxy-benzyl)-1H-indol-4-yloxy]-β-D-glucopyranoside]	1430 nM		inhibition at 10 µM (human SGLT1): 43%
CCc1ccc(Cc2c[nH]c3cccc(O[C@@H]4O[C@H](COC(=O)OC)[C@@H](O)[C@H](O)[C@H]4O)c23)cc1 [Example 12, 2-[3-(4-Ethyl-benzyl)-1H-indol-4-yloxy]-6-O-methoxycarbonyl-β-D-glucopyranoside]	660 nM		
COc1ccc(CCc2c[nH]c3cc(C)cc(O[C@@H]4O[C@H](CO)[C@@H](O)[C@H](O)[C@H]4O)c23)cc1 [Example 10, 2-{3-[2-(4-Methoxy-phenyl)-ethyl]-6-methyl-1H-indol-4-yloxy}-β-D-glucopyranoside]	376 nM	2730 nM	
CCCc1ccc(Cc2c[nH]c3cccc(O[C@@H]4O[C@H](CO)[C@@H](O)[C@H](O)[C@H]4O)c23)cc1 [Example 17, 2-[3-(4-propyl-benzyl)-1H-indol-4-yloxy]-β-D-glucopyranoside]	49 nM		
Cc1ccc(Cc2c[nH]c3cccc(O[C@@H]4O[C@H](CO)[C@@H](O)[C@H](O)[C@H]4O)c23)cc1F [Example 16, 2-[3-(3-Fluoro-4-methyl-benzyl)-1H-indol-4-yloxy]-β-D-glucopyranoside]	67 nM		inhibition at 3 µM (human SGLT1; 3 μM compound, read-out: CHOK-SGLT1 % Inh. @ 3 μM): 42%
CCOc1ccc(CCc2c[nH]c3cccc(O[C@@H]4O[C@H](CO)[C@@H](O)[C@H](O)[C@H]4O)c23)cc1 [Example 8, 2-{3-[2-(4-Ethoxy-phenyl)-ethyl]-1H-indol-4-yloxy}-β-D-glucopyranoside]	183 nM	1340 nM	
OC[C@H]1O[C@@H](Oc2cccc3[nH]cc(Cc4ccc(Cl)cc4)c23)[C@H](O)[C@@H](O)[C@@H]1O [Example 28, 2-[3-(4-Chloro-benzyl)-1H-indol-4-yloxy]-β-D-glucopyranoside]	346 nM		inhibition at 10 µM (human SGLT1): 58%
OC[C@H]1O[C@@H](Oc2cccc3[nH]cc(Cc4ccc(-c5cccnc5)cc4)c23)[C@H](O)[C@@H](O)[C@@H]1O [Example 35, 2-[3-(4-Pyridin-3-yl-benzyl)-1H-indol-4-yloxy]-β-D-glucopyranoside]	133 nM	1120 nM	
COc1ccc(CCc2c[nH]c3cccc(O[C@@H]4O[C@H](CO)[C@@H](O)[C@H](O)[C@H]4O)c23)cc1 [Example 7, 2-{3-[2-(4-Methoxy-phenyl)-ethyl]-1H-indol-4-yloxy}-β-D-glucopyranoside]	142 nM	560 nM	
CCc1ccc(Cc2cn(C(C)C)c3cccc(O[C@@H]4O[C@H](CO)[C@@H](O)[C@H](O)[C@H]4O)c23)cc1 [Example 31, 2-[3-(4-Ethyl-benzyl)-1-isopropyl-1H-indol-4-yloxy]-β-D-glucopyranoside]	5110 nM		
OC[C@H]1O[C@@H](Oc2cccc3[nH]cc(Cc4ccc(Oc5ccccc5)cc4)c23)[C@H](O)[C@@H](O)[C@@H]1O [Example 26, 2-[3-(4-Phenoxy-benzyl)-1H-indol-4-yloxy]-β-D-glucopyranoside]	420 nM		
COc1ccc(-c2c[nH]c3cccc(O[C@@H]4O[C@H](CO)[C@@H](O)[C@H](O)[C@H]4O)c23)cc1 [Example 33, 2-[3-(4-Methoxy-phenyl)-1H-indol-4-yloxy]-β-D-glucopyranoside]			inhibition at 10 µM (human SGLT2; 10 μM compound, read-out: CHOK-SGLT2 % Inh. @ 10 μM): 37%
CCOC(=O)OC[C@H]1O[C@@H](Oc2cccc3[nH]cc(Cc4ccc(CC)cc4)c23)[C@H](O)[C@@H](O)[C@@H]1O [Example 13, 2-[3-(4-Ethyl-benzyl)-1H-indol-4-yloxy]-6-O-ethoxycarbonyl-β-D-glucopyranoside]	650 nM		
